Laboratory results published in patent US8084602B2, “Porphyrin derivatives and their use in photodynamic therapy” (Destiny Pharma Limited, priority 2002, dated 2011).

Assays:
[1] = tested on: Guinea Pig skin (intact and abraded); assay: Photo-toxicity test (OECD 406 based); assay type: in vivo
Description: Clinical and histological examination of the skin test sites was conducted at 24 and 72 hours post illumination in classical photo-toxicity testing fashion. Biopsies were not done from contiguous sites to prevent any interaction in case of suture. Gross findings were evaluated at the moment of the biopsy. Before giving a score to each endpoint (erythema, oedema and inflammation), data for each subject were compared to the data from the other animals and to control data. A score from 0 to 4 was given for each site and for each endpoint according to the Draize Scale (for inflammation, a scale similar to the Draize Scale was created after microscopic observation of all skin sections, comparing with normal skin and with findings of step-1). A mean score was then calculated for each animal and for each sampling point.

[2] = tested on: Staphylococcus aureus BAA-44; assay: Emergence of bacterial resistance to PDT; assay type: cell-based; settings: S. aureus ATCC BAA-44; ten subsequent photodynamic treatments
Description: The potential build up of resistance of the bacterial cells to the exemplary compounds of the invention was tested in the multi-drug resistant (including methicillin) gram positive bacterium Staphylococcus aureus BAA-44, using Compound 10 as the photodynamic agent. The survival of S. aureus BAA-44 after the second treatment was again compared to the survival of S. aureus BAA-44 cells that had not been treated with PDT. […] In an additional experiment, clones which had been exposed nine times to PDT treatment by the above methodology were treated for a tenth time and the results compared to the cell kill observed in a parallel experiment where naïve cultures (i.e. which had not been exposed to PDT) were subjected to PDT treatment under exactly the same conditions.
The results obtained from comparing cell kill contained from cultures that had been exposed to 10 consecutive PDT treatments with neïve cultures (i.e. which had not been exposed to PDT) are shown in FIG. 7. The survival was expressed as log N0/N, where N0 and N represent the number of CFU/ml of the untreated and treated cell suspensions.

[3] = tested on: intact and abraded rat skin; assay: Acute dermal toxicity test (OECD 402); assay type: in vivo; settings: 3.2 mM topical formulation, 24 hours
Description: The compound was applied to both intact and abraded rat skin for 24 hours.

[4] = tested on: Streptococcus pyogenes ATCC 49117; assay: Range of antimicrobial activity (CFU protocol); assay type: cell-based
Description: (§1) For the further investigation of the exemplary compounds (Table 2), the following protocol was adopted: • (i) Bacteria (S. aureus BAA-44 and E. coli 25922) were grown in brain heart infusion (BHI) broth until they reached the stationary phase of growth. • (ii) The cells were harvested by centrifugation (3000 g for 15 min) with a table centrifuge, washed with 10 mM PBS at pH 7.4 containing 2.7 mM KCl and 0.14 M NaCl and suspended in PBS at an optical density of 0.7 at 650 nm corresponding to 10^8-10^9 cells/ml. • (iii) The bacteria, at the desired cell density (˜10^8 cells/ml) were incubated for 5 min in the dark with various concentrations of the exemplary compounds. • (iv) At the end of the incubation period the cells were washed three times with PBS, suspended in PBS, transferred into a 96-well microtitre plate (200 μl/well) and illuminated for 15 min with the Waldmann light source (15.2 mW/cm^2; 13.7 J/cm^2). The cells were illuminated from the bottom of the plate laying it on the glass cover of the lamp. • (v) After illumination, cell survival was determined by plating serially diluted aliquots of treated and untreated (i.e. no exemplary compound or light present) cells onto brain heart agar (BHA) and counting the number of colonies after 18-24 h incubation at 37° C.
(§2) The antibacterial activity of Compound 10 was tested against a range of bacterial strains: • S. aureus ATCC BAA-44 (a methicillin resistant S. aureus) • Ps. aeruginosa ATCC 25668 • S. epidermidis ATCC 700565 • Streptococcus pyogenes ATCC 49117 • E. coli ATCC 25922

[5] = tested on: Pseudomonas aeruginosa ATCC 25668; assay: Range of antimicrobial activity (CFU protocol); assay type: cell-based
Description: as §1, §2

[6] = tested on: Staphylococcus epidermidis ATCC 700565; assay: Range of antimicrobial activity (CFU protocol); assay type: cell-based
Description: as §1, §2

[7] = tested on: human dermal fibroblast (NHDF) cells; assay: Quenching studies using sodium azide and D2O; assay type: cell-based; settings: after illumination
Description: Triangle/solid line: Compound 10+PBS buffer+light; Squares/solid line: Compound 10+D2O+light; Circles/solid line: Compound 10+sodium azide+light; Triangles/dotted line: Compound 10+PBS buffer w/o light; Squares/dotted line: Compound 10+D2O w/o light; Circles/dotted line: Compound 10+sodium azide w/o light. (n=3, mean±Std).
Quenching studies using D2O and azide were performed with Compound 10 and light against keratinocytes in vitro. In order to investigate whether phototoxicity of the test compound against NHDF, NHEK and bacteria follows the photo-oxidation type II, sodium azide, a physical quencher of singlet oxygen as well as D2O an enhancer of reactive oxygen species were (Lin et al., 1991, Cancer Res. 51:1109-1116; Moan et al., 1979, Brit. J. Cancer 39:398-407).

C[N+](C)(C)CCCOc1ccc(-c2c3nc(cc4ccc([nH]4)c(-c4ccc(OCCC[N+](C)(C)C)cc4)c4nc(cc5ccc2[nH]5)C=C4)C=C3)cc1.[Cl-].[Cl-] [Compound 10, 5,15-bis-[4-(3-Trimethylammonio-propyloxy)-phenyl]-porphyrin dichloride]
photo-toxic potential ([1]; 32 μM topical formulation, 24 hours on intact and abraded skin, then 30 minute light exposure, examined 24 and 72 hours post illumination): no clinical signs or symptoms or histological findings that suggested any photo-toxic potential | damage to the surface of the skin ([1]; 32 μM, in the absence of light): did not result in any damage to the surface of the skin | development of resistance [2]: no appreciable development of resistance | Histological toxicology [3]: No Histological toxicology of any major organ (including the skin) was observed | acute toxic or allergic effect [3]: does not result in any acute toxic or allergic effect | clinical toxicology [3]: no clinical toxicology was observed | Concentration of Compound 10 required to obtain a 3 log reduction in cells (μM) [4]: 0.01 μM | Concentration of Compound 10 required to obtain a 3 log reduction in cells (μM) [5]: 5.0 μM | Concentration of Compound 10 required to obtain a 3 log reduction in cells (μM) [6]: 0.0025 μM | cell viability on addition of D2O ([7]; D2O): dramatic decrease | Cell killing in the presence of sodium azide ([7]; sodium azide (50 mM)): reduced
